Test results: the supplement of paper PMC10307832

Tests used:
Assay in all cases: relative viability (nuclei count vs DMSO), 5 days (fraction); higher = more cells survive
[1] = compound: CC1=C(C=CC(=C1)[N+](=O)[O-])NS(=O)(=O)C2=C(C=CC(=C2)Cl)Cl [FH535] + Cc1cc(Nc2cc(N3CCN(C)CC3)nc(Sc3ccc(NC(=O)C4CC4)cc3)n2)n[nH]1 [Tozasertib] (partner 0.1 µM)
In short: (§1)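 Lung cancer cell lines, seeded in 1536-well plates, were treated the following day by pin tool with a single drug or with five library-drug doses (not always all listed) in √10 steps on top of a fixed anchor-drug dose. Cells were fixed and nuclei stained in one step after 5 days, and nuclei were counted. Relative viability is the nuclei count for treated wells divided by that for vehicle wells, reported as medians of duplicate plates.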

[2] = compound: CC1=C(C=CC(=C1)[N+](=O)[O-])NS(=O)(=O)C2=C(C=CC(=C2)Cl)Cl [FH535] + COc1cc2c(Oc3ccc(NC(=O)C4(C(=O)Nc5ccc(F)cc5)CC4)cc3F)ccnc2cc1OCCCN1CCOCC1 [Foretinib] (partner 0.25 µM)
In short: as §1

[3] = compound: CC1=C(C=CC(=C1)[N+](=O)[O-])NS(=O)(=O)C2=C(C=CC(=C2)Cl)Cl [FH535] + Nc1ncn([C@H]2C[C@H](O)[C@@H](CO)O2)c(=O)n1 [Decitabine] (partner 2 µM)
In short: as §1

[4] = compound: CC1=C(C=CC(=C1)[N+](=O)[O-])NS(=O)(=O)C2=C(C=CC(=C2)Cl)Cl [FH535] + Cc1nc(Nc2ncc(C(=O)Nc3c(C)cccc3Cl)s2)cc(N2CCN(CCO)CC2)n1 [Dasatinib] (partner 0.075 µM)
In short: as §1

[5] = compound: CC1=C(C=CC(=C1)[N+](=O)[O-])NS(=O)(=O)C2=C(C=CC(=C2)Cl)Cl [FH535] + CC1(C)CCC(c2ccc(Cl)cc2)=C(CN2CCN(c3ccc(C(=O)NS(=O)(=O)c4ccc(N[C@H](CCN5CCOCC5)CSc5ccccc5)c(S(=O)(=O)C(F)(F)F)c4)cc3)CC2)C1 [Navitoclax] (partner 0.5 µM)
In short: as §1

Cell Line	relative viability ([1]; first compound 0.04 µM)	relative viability ([1]; first compound 0.1265 µM)	relative viability ([1]; first compound 0.4 µM)	relative viability ([1]; first compound 1.265 µM)	relative viability ([2]; first compound 0.04 µM)	relative viability ([2]; first compound 0.1265 µM)	relative viability ([2]; first compound 0.4 µM)	relative viability ([2]; first compound 1.265 µM)	relative viability ([3]; first compound 0.04 µM)	relative viability ([3]; first compound 0.1265 µM)	relative viability ([3]; first compound 0.4 µM)	relative viability ([3]; first compound 1.265 µM)	relative viability ([4]; first compound 0.04 µM)	relative viability ([4]; first compound 0.1265 µM)	relative viability ([4]; first compound 0.4 µM)	relative viability ([4]; first compound 1.265 µM)	relative viability ([5]; first compound 0.04 µM)	relative viability ([5]; first compound 0.1265 µM)	relative viability ([5]; first compound 0.4 µM)	relative viability ([5]; first compound 1.265 µM)
201T	0.919	0.953	0.976	0.743	0.987	1.15	1.11	1.02	0.824	0.842	0.872	0.652	0.555	0.568	0.437	0.442	1.2	1.19	1.18	1.16
A549	–	–	–	–	0.947	0.981	0.853	0.722	0.251	0.228	0.161	0.222	–	–	–	–	1.28	1.16	1.25	0.936
A-427	0.175	0.205	0.243	0.159	1.06	0.965	1.04	0.977	0.545	0.593	0.549	0.576	0.54	0.826	0.657	0.564	0.968	0.928	0.839	0.865
ABC-1	0.181	0.216	0.218	0.217	1.04	0.849	0.969	0.907	1.07	0.997	0.994	1.01	0.584	0.619	0.4	0.36	–	–	–	–
BEN	0.547	0.483	0.483	0.487	0.595	0.932	0.723	0.328	0.676	0.703	0.573	0.498	0.247	0.351	0.258	0.214	0.0691	0.0603	0.0578	0.0625
CAL-12T	0.288	0.324	0.243	0.212	1.15	1.11	1.04	0.577	–	–	–	–	0.361	0.417	0.291	0.235	1.16	1.11	1.12	0.654
COR-L23	0.183	0.17	0.185	0.167	0.936	0.818	0.781	0.517	0.302	0.424	0.444	0.314	0.447	0.437	0.38	0.222	0.992	1.14	0.886	0.567
COR-L 105	0.359	0.339	0.337	0.304	0.936	1.25	0.794	1.02	0.634	0.735	0.64	0.687	0.292	0.325	0.314	0.333	0.725	0.864	0.702	0.637
ChaGo-K-1	0.225	0.236	0.216	0.202	0.916	1.05	0.967	0.722	0.496	0.517	0.54	0.377	0.581	0.563	0.54	0.563	0.96	1.35	1.04	0.636
EKVX	0.405	0.402	0.452	0.333	0.792	0.629	0.744	0.587	0.373	0.413	0.331	0.27	0.336	0.705	0.511	0.243	0.976	0.849	0.924	0.789
EMC-BAC-2	0.289	0.312	0.306	0.254	0.978	0.97	0.997	0.809	0.885	1	0.985	0.892	0.302	0.358	0.317	0.319	1.17	1.19	1.2	1.02
EPLC-272H	0.148	0.249	0.194	0.214	0.586	0.852	0.72	0.562	0.328	0.4	0.412	0.377	0.283	0.318	0.311	0.281	1.04	1.22	1.07	0.926
H3255	0.62	0.716	0.659	0.452	0.817	0.803	0.794	0.496	0.541	0.625	0.63	0.456	0.341	0.473	0.408	0.346	0.514	0.338	0.416	0.26
HARA	0.0901	0.133	0.128	0.0965	0.814	0.969	0.88	0.477	0.578	0.475	0.552	0.414	0.358	0.194	0.205	0.182	1.14	1.17	1.15	0.931
HCC-15	0.457	0.414	0.409	0.482	0.988	1.06	0.965	0.639	0.58	0.58	0.604	0.451	0.552	0.632	0.505	0.49	0.624	0.739	0.613	0.482
HCC-44	0.916	1	0.933	0.756	–	–	–	–	0.896	0.938	0.845	0.835	–	–	–	–	1.06	1.04	0.911	0.74
HCC-78	0.462	0.397	0.409	0.414	0.565	0.561	0.608	0.51	0.541	0.673	0.573	0.529	0.33	0.514	0.342	0.427	0.612	1.04	0.782	0.718
